Measured values as given in ChEMBL document CHEMBL1201862, “PubChem BioAssay data set” (2004).
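A five-concentration, 48-hour dose response in 96-well plates underlies each endpoint, interpolated linearly between surrounding concentrations. The concentration for 50% growth inhibition is given as GI50.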 Calls of active or inactive are those of the source. Rule as the data show it: active = GI50 up to about 1.1 µM and inactive = higher.

How the values were obtained:
Experiment in all cases: NCI tumour cell line growth inhibition, 48 h
DLD-1 = tested on: DLD-1
RXF 631 = tested on: RXF 631
DMS-114 = tested on: DMS-114
DMS-273 = tested on: DMS-273
LXFL 529 = tested on: LXFL 529
M19-MEL = tested on: M19-MEL
KM-20L2 = tested on: KM-20L2
HOP-18 = tested on: HOP-18
SNB-78 = tested on: SNB-78

Measured: GI50

COc1ccc2nc(C(=O)c3ccccc3)c(C)cc2c1
inactive: DLD-1 4.84 µM | RXF 631 8.18 µM | DMS-114 3.22 µM | DMS-273 3.08 µM | LXFL 529 9.25 µM | M19-MEL 7.82 µM | KM-20L2 3.18 µM | HOP-18 > 26.9 µM | SNB-78 13.2 µM

CCN(CC)CCC(=O)/C=C/c1ccc(C)cc1
inactive: DLD-1 6.17 µM | RXF 631 16.4 µM | DMS-114 11.3 µM | DMS-273 11.2 µM | LXFL 529 7.67 µM | M19-MEL 12.8 µM | KM-20L2 15.6 µM | HOP-18 17.6 µM | SNB-78 23.5 µM

CN(C)c1ccc(/C=C2\N=C(c3ccc(N)cc3)OC2=O)cc1
inactive: DLD-1 > 100 µM | RXF 631 > 100 µM | DMS-114 > 100 µM | DMS-273 > 100 µM | LXFL 529 > 100 µM | M19-MEL > 100 µM | KM-20L2 > 100 µM | HOP-18 > 100 µM | SNB-78 > 100 µM

COc1cc2c(cc1OC)C1[C@@H](c3ccccc3)OCN1CC2 (stereo partly specified)
inactive: DLD-1 > 86.9 µM | RXF 631 > 100 µM | DMS-114 88.1 µM | DMS-273 > 100 µM | LXFL 529 > 100 µM | M19-MEL > 100 µM | KM-20L2 > 100 µM | HOP-18 > 100 µM | SNB-78 > 73.1 µM
